Data: ChEMBL document CHEMBL3286349 (Bioorg Med Chem Lett, 2014)
pEC50, pKd: −log10 of the molar value. Active and inactive are the calls of the source. The rule behind the calls is not given here. Residues, ends and D or L forms follow the SMILES beside them.

Columns and labels:
[1] = biological target: T1, Peroxisome proliferator-activated receptor alpha (Rattus norvegicus) (UniProt P37230); test: Agonist activity at PPARalpha in lipid loaded rat HII4E cells assessed as induction of fatty acid uptake at 1 uM after 24 hrs by flow cytometry analysis relative to control; format: cell-based
T1 sequence (whole entry): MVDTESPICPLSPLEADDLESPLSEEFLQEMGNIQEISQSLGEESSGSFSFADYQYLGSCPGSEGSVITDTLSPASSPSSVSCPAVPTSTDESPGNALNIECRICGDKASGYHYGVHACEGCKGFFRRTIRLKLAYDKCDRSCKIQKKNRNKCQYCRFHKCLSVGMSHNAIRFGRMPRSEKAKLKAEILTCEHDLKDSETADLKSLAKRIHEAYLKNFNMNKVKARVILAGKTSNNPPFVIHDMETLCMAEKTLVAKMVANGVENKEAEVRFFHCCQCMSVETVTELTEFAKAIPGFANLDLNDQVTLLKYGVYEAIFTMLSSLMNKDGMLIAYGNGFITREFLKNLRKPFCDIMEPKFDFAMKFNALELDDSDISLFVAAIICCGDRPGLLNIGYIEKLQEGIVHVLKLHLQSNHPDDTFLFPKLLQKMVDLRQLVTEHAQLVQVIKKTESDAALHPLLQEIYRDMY

[2] = biological target: T1, Peroxisome proliferator-activated receptor alpha (Rattus norvegicus); test: Agonist activity at PPARalpha in lipid loaded rat HII4E cells assessed as reduction of intracellular cholesterol level at 100 uM after 24 hrs relative to control; format: cell-based; design: scale not given: the % may be the effect or the level left
[3] = biological target: T1, Peroxisome proliferator-activated receptor alpha (Rattus norvegicus); test: Agonist activity at PPARalpha in lipid loaded rat HII4E cells assessed as reduction of intracellular triglyceride level at 500 uM after 24 hrs relative to control; format: cell-based; design: scale not given: the % may be the effect or the level left
[4] = Reduction of intracellular cholesterol level in lipid loaded rat HII4E cells expressing PPARgamma siRNA after 24 hrs; format: functional, cell-based
[5] = biological target: T1, Peroxisome proliferator-activated receptor alpha (Rattus norvegicus); test: Agonist activity at PPARalpha in lipid loaded rat HII4E cells assessed as induction of transcriptional activity at 500 uM after 24 hrs by qPCR analysis relative to control; format: cell-based
[6] = biological target: T1, Peroxisome proliferator-activated receptor alpha (Rattus norvegicus); test: Agonist activity at PPARalpha in lipid loaded rat HII4E cells assessed as increase of acyl-CoA synthetase gene expression at 100 uM after 24 hrs by qPCR analysis relative to control; format: cell-based
[7] = Reduction of intracellular cholesterol level in lipid loaded rat HII4E cells expressing PPARalpha siRNA at 10 to 500 uM after 24 hrs; format: functional, cell-based
[8] = biological target: T2, Peroxisome proliferator-activated receptor alpha (Homo sapiens) (UniProt Q07869); test: Agonist activity at PPARalpha (unknown origin) expressed in CHOK1 cells assessed as induction of transactivation activity at 100 uM after 24 hrs by luciferase reporter gene assay relative to control; format: cell-based; settings: CHO-K1
T2 sequence (whole entry): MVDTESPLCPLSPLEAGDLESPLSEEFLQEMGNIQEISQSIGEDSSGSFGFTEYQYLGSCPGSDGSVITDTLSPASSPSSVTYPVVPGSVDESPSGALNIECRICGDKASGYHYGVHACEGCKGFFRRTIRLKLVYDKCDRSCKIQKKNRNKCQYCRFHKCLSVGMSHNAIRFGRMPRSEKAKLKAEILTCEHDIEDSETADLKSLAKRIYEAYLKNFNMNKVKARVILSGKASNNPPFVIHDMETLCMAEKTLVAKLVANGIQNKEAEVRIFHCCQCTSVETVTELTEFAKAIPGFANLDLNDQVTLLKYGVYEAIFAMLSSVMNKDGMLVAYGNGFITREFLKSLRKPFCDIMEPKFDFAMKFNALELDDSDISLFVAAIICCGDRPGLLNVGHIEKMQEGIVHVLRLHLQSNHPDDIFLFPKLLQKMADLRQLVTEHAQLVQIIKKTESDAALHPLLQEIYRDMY

[9] = biological target: T1, Peroxisome proliferator-activated receptor alpha (Rattus norvegicus); test: Agonist activity at PPARalpha in lipid loaded rat HII4E cells assessed as increase of CPT1 gene expression at 500 uM after 24 hrs by qPCR analysis relative to control; format: cell-based
[10] = biological target: T1, Peroxisome proliferator-activated receptor alpha (Rattus norvegicus); test: Agonist activity at PPARalpha in lipid loaded rat HII4E cells assessed as reduction of intracellular cholesterol level after 24 hrs; format: cell-based
[11] = biological target: T1, Peroxisome proliferator-activated receptor alpha (Rattus norvegicus); test: Agonist activity at PPARalpha in lipid loaded rat HII4E cells assessed as induction of fatty acid uptake at 100 to 500 uM after 24 hrs by flow cytometry analysis relative to control; format: cell-based
[12] = biological target: T2, Peroxisome proliferator-activated receptor alpha (Homo sapiens); test: Agonist activity at PPARalpha (unknown origin) expressed in CHOK1 cells assessed as induction of transactivation activity at 500 uM after 24 hrs by luciferase reporter gene assay relative to control; format: cell-based; settings: CHO-K1
[13] = biological target: T1, Peroxisome proliferator-activated receptor alpha (Rattus norvegicus); test: Agonist activity at PPARalpha in lipid loaded rat HII4E cells assessed as increase of ACOX gene expression at 500 uM after 24 hrs by qPCR analysis relative to control; format: cell-based
[14] = biological target: T1, Peroxisome proliferator-activated receptor alpha (Rattus norvegicus); test: Agonist activity at PPARalpha in lipid loaded rat HII4E cells assessed as increase of acyl-CoA synthetase gene expression at 500 uM after 24 hrs by qPCR analysis relative to control; format: cell-based
[15] = biological target: T1, Peroxisome proliferator-activated receptor alpha (Rattus norvegicus); test: Agonist activity at PPARalpha in lipid loaded rat HII4E cells assessed as induction of transcriptional activity at 100 uM after 24 hrs by qPCR analysis relative to control; format: cell-based
[16] = biological target: T1, Peroxisome proliferator-activated receptor alpha (Rattus norvegicus); test: Agonist activity at PPARalpha in lipid loaded rat HII4E cells assessed as reduction of intracellular cholesterol level at 500 uM after 24 hrs relative to control; format: cell-based; design: scale not given: the % may be the effect or the level left
[17] = biological target: T1, Peroxisome proliferator-activated receptor alpha (Rattus norvegicus); test: Agonist activity at PPARalpha in lipid loaded rat HII4E cells assessed as reduction of intracellular triglyceride level at 100 uM after 24 hrs relative to control; format: cell-based; design: scale not given: the % may be the effect or the level left
[18] = biological target: T3, Peroxisome proliferator-activated receptor alpha (Homo sapiens, UniProt Q07869); test: Binding affinity to PPARalpha LBD (unknown origin) by surface plasmon resonance assay
T3 sequence (Q07869 whole entry): T2 sequence (whole entry)

[19] = Reduction of intracellular triglyceride level in lipid loaded rat HII4E cells expressing PPARalpha siRNA at 10 to 500 uM after 24 hrs; format: functional, cell-based
[20] = biological target: T3, Peroxisome proliferator-activated receptor alpha; test: Agonist activity at PPARalpha LBD (unknown origin) assessed as induction of PGC1alpha co-activator activity by TR-FRET analysis
[21] = Reduction of intracellular triglyceride level in lipid loaded rat HII4E cells expressing PPARgamma siRNA after 24 hrs; format: functional, cell-based
[22] = biological target: T1, Peroxisome proliferator-activated receptor alpha (Rattus norvegicus); test: Agonist activity at PPARalpha in lipid loaded rat HII4E cells assessed as increase of FATP4 gene expression at 100 uM after 24 hrs by qPCR analysis relative to control; format: cell-based
[23] = biological target: T1, Peroxisome proliferator-activated receptor alpha (Rattus norvegicus); test: Agonist activity at PPARalpha in lipid loaded rat HII4E cells assessed as increase of FATP4 gene expression at 500 uM after 24 hrs by qPCR analysis relative to control; format: cell-based

CC(C)(Sc1ccc(CCN(CCCCC2CCCCC2)C(=O)NC2CCCCC2)cc1)C(=O)O
Activity [1]: Active

N[C@@H](Cc1c[nH]c2ccccc12)C(=O)N[C@@H](CCC(=O)O)C(=O)O (H-Trp-Glu-OH)
Activity [2]: 14% | Activity [3]: 16% | Activity [4]: Dose-dependent effect | fold change (FC) [5]: 1.9 | fold change (FC) [6]: 1.4 | Activity [7]: inactive | Activity [8]: 53% | fold change (FC) [9]: 1.6 | Activity [10]: Dose-dependent effect | fold change (FC) [11]: 1.2 | Activity [12]: 62% | fold change (FC) [13]: 1.4 | fold change (FC) [14]: 1.5 | fold change (FC) [15]: 1.8 | Activity [16]: 21% | Activity [17]: 14% | pKd [18]: 3.92 | Activity [19]: inactive | pEC50 [20]: 4.08 | Activity [21]: Dose-dependent effect | fold change (FC) [22]: 1.6 | fold change (FC) [23]: 1.7
